In paper PMC9918186, “Interaction of Positively Charged Oligopeptides with Blood Plasma Proteins” (International Journal of Molecular Sciences, 2023):
Non-standard residues stand in square brackets, D forms with d. Residues, ends and D or L forms follow the SMILES beside them. Phe(2-F) = N[C@@H](Cc1ccccc1F)C(=O)O; Orn = NCCC[C@H](N)C(=O)O; Dab = NCC[C@H](N)C(=O)O

Columns and labels:
[1] = target: bovine serum albumin (BSA) (Bos taurus, UniProt P02769); assay: Fluorescence quenching of BSA by peptides L1–3
Protocol: Fluorescence spectroscopy was carried out to characterize the mechanism of the interaction between three plasma proteins, BSA, AAG, and GGF, with the studied peptides. The fluorescence spectra of protein were collected during titration of L1–L3. The excitation wavelength was set at λ = 280 nm (both Trp and Tyr residues were excited).
To confirm this, the fluorescence data were further analyzed by the Stern–Volmer Equation (1) after correction due to the infer filter effect (2):(1) F0/F=1+kqτ[Q]=1+KSV (2) Fcorr=Fobs10^(Aex+Aem)/2 where F0 and F are the fluorescence intensities (after correction) of the protein and protein in the presence of L1–3, respectively, kq is the quenching rate constant, τ0 the average lifetime, [Q] is the L1–3 concentration, Ksv is the Stern–Volmer constant, and Fcorr, and Fobs are the corrected and observed fluorescence intensities, respectively. Aex and Aem are the absorbance values at excitation and emission wavelengths, respectively. A linear regression fit was used to calculate the value of the Stern–Volmer constant (Ksv). Then, assuming the average lifetime of the fluorophore in the excited state for a biomolecule as 10^−8 s, the quenching rate constant (kq) was computed. For dynamic quenching, the maximum scatters collision quenching rate constant for different quenchers with the biopolymers was reported to be 2 × 10^10 dm^3mol^−1s^−1 [55, 56]. […] Collisional quenching occurs when the excited-state fluorophore is deactivated by contact with some other molecule in solution (by collisions). […] This is a dynamic mechanism of quenching. The quenching constant characterizes the quenching mechanism. The maximum value for collisional quenching is 2 × 10^10 dm^3mol^−1s^−1. […] For further confirmation, measurements were made at, in addition to 297 K, temperatures 303 and 308 K. Experimental data points were fitted and analyzed using Equation (1).
Both for the complexes with BSA and with GGF, the binding constant (Kb) and the binding stoichiometry (n) were calculated. […] The values of Kb and n were calculated from the slope and the intercept of the log [(F0 − F)/F] versus log [Q] plot (Figure 2).
The forces involved in the interaction can be identified by measurement at different temperatures and then by thermodynamic analysis. The signs of the thermodynamic parameters identify the type of interactions. The enthalpy change (ΔH°), the entropic change (ΔS°), and the free energy change (ΔG°) were calculated from Equations (4) and (5):(4) […]=−ΔH^°/RT+ΔS^°/R (5) ΔG^°=ΔH^°−TΔS^°=−RTlnKb where Kb is the binding constant and R is the universal gas constant. To determine the thermodynamic parameters, the van’t Hoff plot was first conducted, i.e., the temperature dependence of the binding constant, according to Equation (4). The Kb values at the three temperatures were fitted by the linear regression method. The values of ΔH and ΔS were calculated from the slope and intercept at the fitted line. Next, the free energy change (ΔG°) was obtained from Equation (5).

[2] = target: T1, BSA (Bos taurus, UniProt P02769); details: 298 K, one-to-one stoichiometry; cited from earlier work
T1 construct: purchased Sigma Aldrich
Protocol: The enthalpy change (ΔH°), the entropic change (ΔS°), and the free energy change (ΔG°) were calculated from Equations (4) and (5):(4) […]=−ΔH^°/RT+ΔS^°/R (5) ΔG^°=ΔH^°−TΔS^°=−RTlnKb where Kb is the binding constant and R is the universal gas constant. To determine the thermodynamic parameters, the van’t Hoff plot w ...

[3] = 297 K, BSA 1.0 µM, phosphate buffer
[4] = 308 K, BSA 1.0 µM, phosphate buffer

bovine serum albumin (BSA), sequence (P02769 25-607): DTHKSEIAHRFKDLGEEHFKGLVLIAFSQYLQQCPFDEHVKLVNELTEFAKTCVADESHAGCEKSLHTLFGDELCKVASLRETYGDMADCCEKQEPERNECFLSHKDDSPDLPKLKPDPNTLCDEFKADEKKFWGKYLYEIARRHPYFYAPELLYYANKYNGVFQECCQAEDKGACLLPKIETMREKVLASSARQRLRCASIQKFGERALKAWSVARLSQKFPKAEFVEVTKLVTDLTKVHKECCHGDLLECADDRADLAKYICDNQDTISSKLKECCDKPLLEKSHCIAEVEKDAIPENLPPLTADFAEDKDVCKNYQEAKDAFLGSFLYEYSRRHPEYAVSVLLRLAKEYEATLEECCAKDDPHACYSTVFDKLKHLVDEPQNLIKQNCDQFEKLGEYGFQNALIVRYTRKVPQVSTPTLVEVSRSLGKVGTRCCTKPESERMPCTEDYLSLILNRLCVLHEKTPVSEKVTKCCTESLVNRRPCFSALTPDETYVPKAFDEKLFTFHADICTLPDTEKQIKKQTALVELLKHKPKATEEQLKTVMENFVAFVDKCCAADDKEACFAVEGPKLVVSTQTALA
T1 sequence (P02769 25-607): as above

binding constant Kb [1, 3] | binding constant Kb ([1]; 303 K, BSA 1.0 µM, phosphate buffer) | binding constant Kb [1, 4] | binding constant Kb ([1]; BSA, 297 K) | SMILES | Kb constant to BSA [2]
3.39 ± 0.06 × 10^4 dm^3mol^−1 | 1.10 ± 0.05 × 10^4 dm^3mol^−1 | 0.55 ± 0.02 × 10^4 dm^3mol^−1 | 3.39 × 10^4 dm^3mol^−1 | C[C@H](NC(=O)[C@H](CCN)NC(=O)[C@@H](N)CCCCN)C(=O)NCC(=O)N[C@@H](CCCN)C(=O)N1CCC[C@H]1C(=O)N[C@@H](Cc1c[nH]cn1)C(=O)N[C@@H](CCCCN)C(=O)N[C@@H](CCCNC(=N)N)C(=O)O [L2, Lys-Dab-Ala-Gly-Orn-Pro-His-Lys-Arg] (H-K[Dab]AG[Orn]PHKR-OH) | –
2.52 ± 0.07 × 10^4 dm^3mol^−1 | – | 0.76 ± 0.03 × 10^4 dm^3mol^−1 | – | N=C(N)NCCC[C@H](NC(=O)[C@H](CCCCN)NC(=O)[C@H](Cc1ccccc1F)NC(=O)[C@@H]1CCCN1C(=O)[C@H](CCCN)NC(=O)CNC(=O)[C@H](CCN)NC(=O)[C@H](CCN)NC(=O)[C@@H](N)CCCCN)C(=O)O [L3, Lys-Dab-Dab-Gly-Orn-Pro-Phe(2-F)-Lys-Arg] (H-K[Dab][Dab]G[Orn]P[Phe(2-F)]KR-OH) | –
– | – | – | – | COc1cc2ncnc(Nc3ccc(F)c(Cl)c3)c2cc1OCCCN1CCOCC1 [gefitinib] | 8.32 × 10^4 dm^3mol^−1
– | – | – | – | CS(=O)(=O)CCNCc1ccc(-c2ccc3ncnc(Nc4ccc(OCc5cccc(F)c5)c(Cl)c4)c3c2)o1 [lapatinib] | 2.24 × 10^5 dm^3mol^−1
– | – | – | – | CCN(CC)CCNC(=O)c1c(C)[nH]c(/C=C2\C(=O)Nc3ccc(F)cc32)c1C [sunitinib] | 1.32 × 10^5 dm^3mol^−1
